Series [1] has as its system HCoV-OC43. In words: HCoV-OC43 cytopathic effects. The class given is cell-based.
Series [2] concerns HEK293T cells. The following applies: below 50 μmol/L, CCK-8.
The target of series [3] is T1, SARS-CoV-2 RdRp (Severe acute respiratory syndrome coronavirus 2, UniProt P0DTD1). Put plainly: biochemical. The following applies: read-out: inhibition of polymerase activity.
In series [4] the target is T1, SARS-CoV-2 RdRp. In words: cell-based.
Series [5] concerns the target SARS-CoV-2 RdRp with nsp10–nsp14 exoribonuclease complex (Severe acute respiratory syndrome coronavirus 2, UniProt P0DTD1). The class given is cell-based. The following applies: with versus without nsp10–nsp14.
For series [6], the target named is SARS-CoV-2 Mpro (Severe acute respiratory syndrome coronavirus 2, UniProt P0DTD1). In words: SARS-CoV-2 Mpro enzyme activity inhibition assay. The class given is biochemical. As to conditions: 10 μmol/L.
For series [7] the following is noted: cited from earlier work.
The conditions of series [8]: orally administered, cited from earlier work.
The conditions of series [9]: rats, orally administered; cited from earlier work.
In series [10] the test system is SARS-CoV-2. The following applies: read-out: EC50 SARS-CoV-2 in vitro; cited from earlier work.

Results on three compounds are retold here after PMC7883726 (Acta Pharmaceutica Sinica. B, 2021).

Entries after “also recorded” stand apart in the source; their conditions may differ. Read-outs that look alike come from different tables or passages of the source.

For orientation: inhibition means the drop in the measured response relative to a control, in per cent. For orientation: EC50 means the concentration giving half of the maximal effect.

For `CCC(CC)COC(=O)[C@H](C)N[P@](=O)(OC[C@H]1O[C@@](C#N)(c2ccc3c(N)ncnn23)[C@H](O)[C@@H]1O)Oc1ccccc1` [remdesivir, reference compound], in series [1], the “concentration protecting cells from CPE induced by HCoV-OC43” value was found to be 0.39 µmol/L. Moreover, in [2], the “cytotoxicity on HEK293T cells” value is given as “Neither remdesivir nor RAI-S-37 showed cytotoxicity”.

On to `O=C(O[C@@H]1O[C@@H]2COC(=O)c3cc(O)c(O)c(O)c3-c3c(cc(O)c(O)c3O)C(=O)O[C@H]([C@H]1O)[C@@H]2O)c1cc(O)c(O)c(O)c1` [RAI-S-37, Corilagin], for which, in series [3], the inhibition at 2.5 µM worked out at 24%, the inhibition at 10 µM came out at 73% and the inhibition at 40 µM is 83%. For the same compound, the EC50 in series [4] worked out at 3.33 µM. In addition, in series [5], the “fold increase in EC50 on expression of nsp10–nsp14” value is “same EC50 values; also recorded: remain the same”. Moreover, the “concentration protecting cells from CPE induced by HCoV-OC43” value in [1] amounted to 0.78 µmol/L. The “inhibitory effect on SARS-CoV-2 Mpro” value in [6] is “did not show any inhibitory effect”. For the same compound, the “cytotoxicity on HEK293T cells” value in series [2] is “Neither remdesivir nor RAI-S-37 showed cytotoxicity”. Moreover, in [7], the LD50 is on record as 3500–5000 mg/kg b. wt and the “acute dose showing maximum tolerance” value is “up to 3500 mg/kg body weight (b.wt.)”. The “toxicity in acute toxicity studies” value in series [7] (oral) was “did not show any toxicity”. In addition, in [8] (mice and rats), the “half lifetime (t1/2)” value is on record as “about 6 h” and the “time to Cmax (Tmax)” value was around 2 h. Further, the “maximum plasma concentration (Cmax)” value in [8] (mice) was 57.0 µg/mL. Moreover, the “maximum plasma concentration (Cmax)” value in series [9] is 52.37 µg/mL.

Regarding `NC(=O)c1ncn([C@@H]2O[C@H](CO)[C@@H](O)[C@H]2O)n1` [ribavirin], in [10], the EC50 is 110 µM.
